Results on 13 compounds are retold here after patent US20260070899A1, “N-(2-(4-CYANOTHIAZOLIDIN-3-YL)-2-OXOETHYL)-QUINOLINE-4-CARBOXAMIDES” (AstraZeneca AB, priority 2022, published 2026).

Molecules are shown by their SMILES. In brackets after ≈: the same amount, converted by molar mass.

One data set has as its system Rat Hepatocytes (rHep). Nature of the data set: Metabolic stability in rat hepatocytes (rHep). Format: in vitro ADME. Conditions: n = 1 or geometric mean (n = 2-3). On the procedure: Metabolic stability in rat hepatocytes was measured as described in J Comput Aided Mol Des 2015, 29, 795.
For the next data set, the target named is T1, hFAP (M39-A757) (Homo sapiens, UniProt Q12884).
T1 sequence (Q12884 39-757): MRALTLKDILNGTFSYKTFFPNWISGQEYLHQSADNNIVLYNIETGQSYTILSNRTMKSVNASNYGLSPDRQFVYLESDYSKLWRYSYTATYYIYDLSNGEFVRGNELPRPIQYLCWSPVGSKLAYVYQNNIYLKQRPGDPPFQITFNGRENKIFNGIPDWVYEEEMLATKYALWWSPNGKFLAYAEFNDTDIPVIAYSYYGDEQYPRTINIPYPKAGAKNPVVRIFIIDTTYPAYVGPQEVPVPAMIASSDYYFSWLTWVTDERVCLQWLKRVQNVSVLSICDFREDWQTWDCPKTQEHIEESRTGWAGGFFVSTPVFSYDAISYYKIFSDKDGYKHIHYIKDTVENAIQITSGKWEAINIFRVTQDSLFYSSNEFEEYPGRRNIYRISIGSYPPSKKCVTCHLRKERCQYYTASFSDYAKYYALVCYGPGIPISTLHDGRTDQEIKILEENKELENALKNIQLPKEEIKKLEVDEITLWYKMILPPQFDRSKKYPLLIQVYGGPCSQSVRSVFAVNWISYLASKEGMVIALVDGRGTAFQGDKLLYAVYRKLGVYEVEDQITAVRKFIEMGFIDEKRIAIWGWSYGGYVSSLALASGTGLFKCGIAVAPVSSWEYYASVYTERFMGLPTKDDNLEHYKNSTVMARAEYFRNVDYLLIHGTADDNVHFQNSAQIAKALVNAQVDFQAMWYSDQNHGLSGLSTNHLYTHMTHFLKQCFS
Nature of the data set: biochemical.

Data set [1] is described as follows: Metabolic stability in human liver microsomes (HLM). The class given is in vitro ADME. Conditions: n = 1 or average (n = 2-3). As for the experimental part: Metabolic stability in HLM was measured as described in J Comput Aided Mol Des 2015, 29, 795.
In data set [2] the target is T2, Prolyl endopeptidase, Prolyl Oligopeptidase (hPREP) (Homo sapiens, UniProt P48147).
T2 sequence (P48147 1-710): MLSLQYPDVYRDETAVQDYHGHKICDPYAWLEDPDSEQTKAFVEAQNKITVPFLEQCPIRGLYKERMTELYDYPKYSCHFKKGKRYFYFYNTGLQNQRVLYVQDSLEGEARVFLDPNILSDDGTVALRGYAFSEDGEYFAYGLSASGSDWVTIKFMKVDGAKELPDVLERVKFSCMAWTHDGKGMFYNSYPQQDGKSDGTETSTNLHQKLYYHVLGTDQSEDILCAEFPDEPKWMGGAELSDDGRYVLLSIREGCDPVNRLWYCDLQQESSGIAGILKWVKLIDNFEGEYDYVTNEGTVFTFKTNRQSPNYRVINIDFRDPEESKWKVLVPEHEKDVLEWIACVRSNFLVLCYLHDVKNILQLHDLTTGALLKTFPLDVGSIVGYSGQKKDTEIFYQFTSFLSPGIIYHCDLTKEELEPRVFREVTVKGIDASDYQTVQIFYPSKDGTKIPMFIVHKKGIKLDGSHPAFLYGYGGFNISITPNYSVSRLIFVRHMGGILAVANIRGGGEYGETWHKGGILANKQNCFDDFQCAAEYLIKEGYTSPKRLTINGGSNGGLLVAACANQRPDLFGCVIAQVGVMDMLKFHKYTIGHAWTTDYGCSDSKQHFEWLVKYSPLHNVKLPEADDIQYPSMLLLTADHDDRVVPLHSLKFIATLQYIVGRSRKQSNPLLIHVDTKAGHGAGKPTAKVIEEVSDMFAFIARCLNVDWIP
Nature of the data set: biochemical.
Protocol: Compounds were tested in a biochemical inhibition assay using Prolyl endopeptidase, Prolyl Oligopeptidase (hPREP) enzyme at 0.6 nM FAC (R&D Systems, 4308-SE) and the substrate Z-Gly-Pro-amino-methylcoumarin (Bachem, I-1145) at 50 μM FAC. 384 Low volume black plates (Greiner #784076) were used. […] Plates were incubated for 15 min at rt in dark. 4 μL, 100 μM substrate solution (25 mM Tris HCl, 250 mM NaCl, 0.01% Triton X-100, 5 mM Glutathione, pH 7.5) was added to each well. Plates were centrifuged at 1000 rpm and incubated for 20 min at rt in dark. The plates were read on a PHERAstar® reader with excitation 340 nm and emission 460 nm. Data were analyzed in Genedata Screener®. IC50 values were determined by plotting % inhibition versus log compound concentration and using a one site dose response model.

Another data set is described as follows: Kinetic solubility. The class given is physicochemical. Conditions: kinetic from dmso stock, n = 1 or average (n = 2-4). On the procedure:
Kinetic solubility was measured as described in Comput Aided Mol Des 2015, 29, 795.

The next data set has as its target T3, hFAP (Homo sapiens, UniProt Q12884).
T3 sequence (Q12884 38-760): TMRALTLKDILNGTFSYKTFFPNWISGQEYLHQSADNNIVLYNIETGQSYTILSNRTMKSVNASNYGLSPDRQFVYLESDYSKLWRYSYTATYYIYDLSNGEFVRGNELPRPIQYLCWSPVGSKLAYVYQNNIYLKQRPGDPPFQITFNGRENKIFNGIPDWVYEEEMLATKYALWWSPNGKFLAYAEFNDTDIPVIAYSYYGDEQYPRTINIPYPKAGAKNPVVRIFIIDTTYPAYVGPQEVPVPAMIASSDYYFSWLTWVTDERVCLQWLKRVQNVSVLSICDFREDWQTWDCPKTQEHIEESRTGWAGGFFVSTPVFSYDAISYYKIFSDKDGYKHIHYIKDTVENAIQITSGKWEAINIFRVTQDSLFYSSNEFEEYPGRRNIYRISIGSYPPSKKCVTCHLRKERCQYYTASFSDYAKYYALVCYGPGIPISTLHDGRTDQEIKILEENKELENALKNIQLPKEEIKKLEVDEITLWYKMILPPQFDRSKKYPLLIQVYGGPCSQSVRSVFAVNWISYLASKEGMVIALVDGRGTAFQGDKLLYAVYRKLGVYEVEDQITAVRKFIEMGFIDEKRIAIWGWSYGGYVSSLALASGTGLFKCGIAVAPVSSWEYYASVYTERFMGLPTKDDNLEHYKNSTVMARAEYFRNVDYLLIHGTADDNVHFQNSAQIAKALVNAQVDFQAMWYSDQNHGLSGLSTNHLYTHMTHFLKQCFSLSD
The data set is described as follows: biochemical.
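Wherever Kd is given: surface plasmon resonance direct binding to hFAP amine-coupled on a sensor chip, rising compound concentrations by single cycle kinetics, Kd from global fit of interaction models.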

With `CC(c1ccc2nccc(C(=O)NCC(=O)N3CSC[C@H]3C#N)c2c1)c1ccc(Cl)cn1` (mixture of isomers) [Example 48, 6-((RS)-1-(5-Chloropyridin-2-yl)ethyl)-N-(2-((R)-4-cyanothiazolidin-3-yl)-2-oxoethyl)quinoline-4-carboxamide], the “rHeps CLint” value with Rat Hepatocytes (rHep) amounted to 27 μL/min/1E6. The compound also came in with a Kd at hFAP (M39-A757) of 0.12 nM. Also, the microsomal CLint in data set [1] was > 300 µL/min/mg. In data set [2], the IC50 was 240 nM. In addition, the concentration in solution in the data set “Kinetic solubility” (solubility) was 240 µM (≈ 112 µg/mL).

Take `Cc1cc(C(C)c2ccc3nccc(C(=O)NCC(=O)N4CSC[C@H]4C#N)c3c2)on1` (mixture of isomers) [Example 49, N-(2-((R)-4-Cyanothiazolidin-3-yl)-2-oxoethyl)-6-((RS)-1-(3-methylisoxazol-5-yl)ethyl)quinoline-4-carboxamide]: the “rHeps CLint” value in the data set on Rat Hepatocytes (rHep) amounted to 24 μL/min/1E6. Moreover, the Kd at hFAP (M39-A757) turned out to be 0.13 nM. The microsomal CLint in data set [1] amounted to 46 µL/min/mg. The same compound showed an IC50 in data set [2] of 110 nM. In the data set “Kinetic solubility”, this compound had a solubility of 220 µM (≈ 95.8 µg/mL).

In the case of `CC(c1ccnc(C(F)(F)F)c1)c1ccc2nccc(C(=O)NCC(=O)N3CSC[C@H]3C#N)c2c1` (mixture of isomers) [Example 52, N-(2-((R)-4-Cyanothiazolidin-3-yl)-2-oxoethyl)-6-((RS)-1-(2-(trifluoromethyl)pyridin-4-yl)ethyl)quinoline-4-carboxamide], in the data set with Rat Hepatocytes (rHep), the “rHeps CLint” value turned out to be 49 μL/min/1E6. Also, the Kd on hFAP (M39-A757) came to 0.2 nM. This compound also registered a microsomal CLint in data set [1] of 210 µL/min/mg. The compound further had an IC50 in data set [2] of 320 nM. Moreover, in the data set “Kinetic solubility”, the concentration in solution (solubility) was 120 µM (≈ 59.9 µg/mL).

In the case of `N#C[C@@H]1CSCN1C(=O)CNC(=O)c1ccnc2ccc(C3CCOC3)cc12` (mixture of isomers) [Example 67, N-(2-((R)-4-Cyanothiazolidin-3-yl)-2-oxoethyl)-6-((RS)-tetrahydrofuran-3-yl)quinoline-4-carboxamide], the “rHeps CLint” value with Rat Hepatocytes (rHep) came to 11 μL/min/1E6. Besides, on hFAP (M39-A757), the Kd worked out at 0.11 nM. The same compound yielded a microsomal CLint in data set [1] of 16 µL/min/mg. For the same compound, the IC50 on hFAP amounted to 0.3 nM; in data set [2], 87 nM. Also, the concentration in solution in the data set “Kinetic solubility” (solubility) came to 880 µM (≈ 349 µg/mL).

On to `N#C[C@@H]1CSCN1C(=O)CNC(=O)c1ccnc2ccc(OCC(F)F)cc12` [Example 2, (R)—N-(2-(4-Cyanothiazolidin-3-yl)-2-oxoethyl)-6-(2,2-difluoroethoxy)quinoline-4-carboxamide], for which, in the data set on Rat Hepatocytes (rHep), the “rHeps CLint” value is reported as 5.9 μL/min/1E6. The compound also gave a Kd at hFAP (M39-A757) of 0.052 nM. The compound further displayed a microsomal CLint in data set [1] of 36 µL/min/mg. In data set [2], the IC50 worked out at 190 nM. The compound also had a solubility in “Kinetic solubility” of 490 µM (≈ 199 µg/mL).

In the case of `N#C[C@@H]1CSCN1C(=O)CNC(=O)c1ccnc2ccc(C3(c4ccnc(C(F)(F)F)c4)CC3)cc12` [Example 13, (R)—N-(2-(4-Cyanothiazolidin-3-yl)-2-oxoethyl)-6-(1-(2-(trifluoromethyl)pyridin-4-yl)cyclopropyl)quinoline-4-carboxamide], the “rHeps CLint” value with Rat Hepatocytes (rHep) is recorded as 140 μL/min/1E6. The compound also had a Kd at hFAP (M39-A757) of 0.12 nM. Moreover, the microsomal CLint in data set [1] was > 300 µL/min/mg. 460 nM corresponded to half-maximal inhibition in data set [2] (IC50). In the data set “Kinetic solubility”, this compound gave a solubility of 78 µM (≈ 39.9 µg/mL).

As to `N#C[C@@H]1CSCN1C(=O)CNC(=O)c1ccnc2ccc(-c3ccoc3)cc12` [Example 14, (R)—N-(2-(4-Cyanothiazolidin-3-yl)-2-oxoethyl)-6-(furan-3-yl)quinoline-4-carboxamide], the “rHeps CLint” value in the data set on Rat Hepatocytes (rHep) amounted to 11 μL/min/1E6. The compound further registered a Kd on hFAP (M39-A757) of 0.046 nM. The compound also displayed a microsomal CLint in data set [1] of 25 µL/min/mg. Moreover, the IC50 is 0.079 nM against hFAP and 8.4 nM in data set [2]. In “Kinetic solubility”, the concentration in solution (solubility) came to 420 µM (≈ 165 µg/mL).

For the compound `CC1(c2ccc3nccc(C(=O)NCC(=O)N4CSC[C@H]4C#N)c3c2)CCOCC1` [Example 21, (R)—N-(2-(4-Cyanothiazolidin-3-yl)-2-oxoethyl)-6-(4-methyl-tetrahydro-2H-pyran-4-yl)quinoline-4-carboxamide], the “rHeps CLint” value with Rat Hepatocytes (rHep) came to 7.9 μL/min/1E6. This compound displayed a Kd on hFAP (M39-A757) of 140 nM. This compound also yielded a microsomal CLint in data set [1] of 100 µL/min/mg. The IC50 in data set [2] worked out at 8.3 nM. Moreover, the solubility in the data set “Kinetic solubility” came to 500 µM (≈ 212 µg/mL).

Consider `N#C[C@@H]1CSCN1C(=O)CNC(=O)c1ccnc2ccc(CF)cc12` [Example 29, (R)—N-(2-(4-cyanothiazolidin-3-yl)-2-oxoethyl)-6-(fluoromethyl)-quinoline-4-carboxamide], for which the “rHeps CLint” value in the data set on Rat Hepatocytes (rHep) came to 12 μL/min/1E6. Besides, the Kd on hFAP (M39-A757) stood at 1.4 nM. Also, the microsomal CLint in data set [1] amounted to 9.8 µL/min/mg. Besides, the IC50 against hFAP was 0.52 nM; in data set [2] it was 32 nM. For the same compound, the solubility in “Kinetic solubility” was > 1000 µM.

`Cc1cc(C2(c3ccc4nccc(C(=O)NCC(=O)N5CSC[C@H]5C#N)c4c3)CC2)no1` [Example 45, (R)—N-(2-(4-Cyanothiazolidin-3-yl)-2-oxoethyl)-6-(1-(5-methylisoxazol-3-yl)cyclopropyl)quinoline-4-carboxamide]: the “rHeps CLint” value in the data set on Rat Hepatocytes (rHep) was 21 μL/min/1E6. Binding at hFAP (M39-A757) was put at a Kd of 0.13 nM. Besides, the microsomal CLint in data set [1] was found to be 70 µL/min/mg. Moreover, the midpoint of inhibition in data set [2], the IC50, lay at 150 nM. In the data set “Kinetic solubility”, the solubility was 250 µM (≈ 112 µg/mL).

On to `CC(F)(F)Cc1ccc2nccc(C(=O)NCC(=O)N3CSC[C@H]3C#N)c2c1` [Example 53, (R)—N-(2-(4-Cyanothiazolidin-3-yl)-2-oxoethyl)-6-(2,2-difluoropropyl)quinoline-4-carboxamide], for which the “rHeps CLint” value in the data set with Rat Hepatocytes (rHep) worked out at 45 μL/min/1E6. Besides, the microsomal CLint in data set [1] was determined as 36 µL/min/mg. In data set [2], the IC50 is 6.5 nM. For the same compound, in the data set “Kinetic solubility”, the concentration in solution (solubility) came to 190 µM (≈ 76.8 µg/mL).

Turning to `N#C[C@@H]1CSCN1C(=O)CNC(=O)c1ccnc2ccc(CCC(F)(F)F)cc12` [Example 58, (R)—N-(2-(4-Cyanothiazolidin-3-yl)-2-oxoethyl)-6-(3,3,3-trifluoropropyl)quinoline-4-carboxamide], the “rHeps CLint” value in the data set with Rat Hepatocytes (rHep) was 17 μL/min/1E6. This compound yielded a microsomal CLint in data set [1] of 77 µL/min/mg. The IC50 in data set [2] was 64 nM. In addition, the solubility in “Kinetic solubility” is 700 µM (≈ 296 µg/mL).

On to `N#C[C@@H]1CSCN1C(=O)CNC(=O)c1ccnc2ccc(C3(C#N)CCCCC3)cc12` [Example 60, (R)-6-(1-Cyanocyclohexyl)-N-(2-(4-cyanothiazolidin-3-yl)-2-oxoethyl)quinoline-4-carboxamide], for which the “rHeps CLint” value in the data set with Rat Hepatocytes (rHep) is on record as 110 μL/min/1E6. In addition, in data set [1], the microsomal CLint was > 300 µL/min/mg. The same compound gave an IC50 in data set [2] of 290 nM. In “Kinetic solubility”, this compound yielded a solubility of 180 µM (≈ 78 µg/mL).
